Test system: P. falciparum Dd2
Assay: Activity against the Dd2 strain of P. falciparum (SYBR Green I, 72 h)
Assay type: cell-based
Conditions: P. falciparum Dd2, 72 h incubation
How it was run: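 Parasites in human RBCs at 1% parasitemia and 1.0% hematocrit, exposed to compounds (0.125% DMSO) for 72 h at 37°C under 93% N2/4% CO2/3% O2. SYBR Green I in saponin/Triton lysis buffer added, 24 h staining, fluorescence read at 485/530 nm. EC50 derived against 20 μM mefloquine background and DMSO baseline.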

[1] = Plasmodium falciparum, DD2, 72 h

Row | Compound | EC50 [1] | EC50
1 | CNC[C@@H]1[C@H](c2ccc(C#Cc3ccccc3)cc2)[C@@H]2CN(C(=O)Nc3ccc(OC)cc3)CCCCN12 [Compound 61, (8R,9S,10S)-N-(4-methoxyphenyl)-10-[(methylamino)methyl]-9-[4-(2-phenylethynyl)phenyl]-1,6-diazabicyclo[6.2.0] decane-6-carboxamide] | 0.047 µM | 
2 | COc1ccc(N(C)C(=O)N2CCCCN3[C@H](CO)[C@H](c4ccc(C#Cc5ccccc5)cc4)[C@@H]3C2)cc1 [Compound 62, (8R,9R,10S)-10-(hydroxymethyl)-N-(4-methoxyphenyl)-N-methyl-9-[4-(2-phenylethynyl)phenyl]-1,6-diazabicyclo[6.2.0] decane-6-carboxamide] | 4.43 µM | 
3 | COc1ccc(CN2CCCCN3[C@H](CO)[C@H](c4ccc(C#Cc5ccccc5)cc4)[C@@H]3C2)cc1 [Compound 63, [(8R,9R,10S)-6-[(4-methoxyphenyl)methyl]-9-[4-(2-phenylethynyl)phenyl]-1,6-diazabicyclo[6.2.0]decan-10-yl]methanol] | 1.23 µM | 
4 | COc1ccc(NC(=O)N2CCCCN3[C@H](CO)[C@H](c4ccc(-c5cccnc5)cc4)[C@@H]3C2)cc1 [Compound 64, (8R,9R,10S)-10-(hydroxymethyl)-N-(4-methoxyphenyl)-9-[4-(pyridin-3-yl)phenyl]-1,6-diazabicyclo[6.2.0] decane-6-carboxamide] | 1.01 µM | 
5 | COc1ccc(NC(=O)N2CCCCN3[C@H](CNC(C)=O)[C@H](c4ccc(C#Cc5ccccn5)cc4)[C@@H]3C2)cc1 [Compound 65, (8R,9S,10S)-10-(acetamidomethyl)-N-(4-methoxyphenyl)-9-{4-[2-(pyridin-2-yl)ethynyl]phenyl}-1,6-diazabicyclo[6.2.0] decane-6-carboxamide] | 0.11 µM | 
6 | COc1ccc(NC(=O)N2CCCCN3[C@H](CO)[C@H](c4ccc(-c5ccn(-c6ccccc6)c5)cc4)[C@@H]3C2)cc1 [Compound 66, (8R,9R,10S)-10-(hydroxymethyl)-N-(4-methoxyphenyl)-9-[4-(1-phenyl-1H-pyrrol-3-yl)phenyl]-1,6-diazabicyclo[6.2.0] decane-6-carboxamide] | 1.31 µM | 
7 | COc1ccc(NC(=O)N2CCCCN3[C@H](CO)[C@H](c4ccc(-c5cccc(F)c5)cc4)[C@@H]3C2)cc1 [Compound 67, (8R,9R,10S)-9-[4-(3-fluorophenyl)phenyl]-10-(hydroxymethyl)-N-(4-methoxyphenyl)-1,6-diazabicyclo[6.2.0] decane-6-carboxamide] | 19.5 µM | 
8 | COc1ccc(NC(=O)N2CCCCN3[C@H](CO)[C@H](c4ccc(-c5ccncc5)cc4)[C@@H]3C2)cc1 [Compound 69, (8R,9R,10S)-10-(hydroxymethyl)-N-(4-methoxyphenyl)-9-[4-(pyridin-4-yl)phenyl]-1,6-diazabicyclo[6.2.0] decane-6-carboxamide] | 19.5 µM | 
9 | COc1ccc(NC(=O)N2CCCCN3C[C@H](c4ccc(C#Cc5ccccc5)cc4)[C@@H]3C2)cc1 [Compound 70, (8R,9S)-N-(4-methoxyphenyl)-9-[4-(2-phenylethynyl)phenyl]-1,6-diazabicyclo[6.2.0] decane-6-carboxamide] | 0.013 µM | 
10 | COc1ccc(NC(=O)N2CCCCN3[C@H](CO)[C@H](c4ccc(C#Cc5ccc(F)c(F)c5)cc4)[C@@H]3C2)cc1 [Compound 71, (8R,9R,10S)-9-{4-[2-(3,4-difluorophenyl)ethynyl]phenyl}-10-(hydroxymethyl)-N-(4-methoxyphenyl)-1,6-diazabicyclo[6.2.0] decane-6-carboxamide] | 0.034 µM | 
11 | COc1ccc(NC(=O)N2CCCCN3[C@H](CO)[C@H](c4ccc(C#Cc5ccccc5F)cc4)[C@@H]3C2)cc1 [Compound 72, (8R,9R,10S)-9-{4-[2-(2-fluorophenyl)ethynyl]phenyl}-10-(hydroxymethyl)-N-(4-methoxyphenyl)-1,6-diazabicyclo[6.2.0] decane-6-carboxamide] | 0.017 µM | 
12 | COc1ccc(NC(=O)N2CCCCN3[C@H](CN4CC(C)(O)C4)[C@H](c4ccc(C#Cc5ccccc5)cc4)[C@@H]3C2)cc1 [Compound 73, (8R,9S,10S)-10-[(3-hydroxy-3-methylazetidin-1-yl)methyl]-N-(4-methoxyphenyl)-9-[4-(2-phenylethynyl)phenyl]-1,6-diazabicyclo[6.2.0] decane-6-carboxamide] | 0.104 µM | 
13 | COc1ccc(NC(=O)N2CCCCCN3[C@H](CO)[C@H](c4ccc(C#Cc5ccccc5)cc4)[C@@H]3C2)cc1 [Compound 74, (9R,10R,11S)-11-(hydroxymethyl)-N-(4-methoxyphenyl)-10-[4-(2-phenylethynyl)phenyl]-1,7-diazabicyclo[7.2.0] undecane-7-carboxamide] | 0.087 µM | 

Now from value to compound:

Row | EC50 [1] | EC50 | Compound
14 | 0.071 µM |  | COc1ccc(NC(=O)N2CCCCN3[C@H](CO)[C@H](c4ccc(C#Cc5ccc(F)cc5F)cc4)[C@@H]3C2)cc1 [Compound 75, (8R,9R,10S)-9-{4-[2-(2,4-difluorophenyl)ethynyl]phenyl}-10-(hydroxymethyl)-N-(4-methoxyphenyl)-1,6-diazabicyclo[6.2.0] decane-6-carboxamide]
15 | 0.008 µM |  | COc1ccc(NC(=O)N2CCCCN3[C@H](CN(C)C(C)=O)[C@H](c4ccc(C#Cc5ccccc5)cc4)[C@@H]3C2)cc1 [Compound 76, (8R,9S,10S)-N-(4-methoxyphenyl)-10-[(N-methylacetamido)methyl]-9-[4-(2-phenylethynyl)phenyl]-1,6-diazabicyclo[6.2.0] decane-6-carboxamide]
16 | 4.89 µM |  | COc1ccc(NC(=O)N2CCCCN3[C@H](CO)[C@H](c4ccc(-c5ccn(-c6ccccc6)n5)cc4)[C@@H]3C2)cc1 [Compound 77, (8R,9R,10S)-10-(hydroxymethyl)-N-(4-methoxyphenyl)-9-[4-(1-phenyl-1H-pyrazol-3-yl)phenyl]-1,6-diazabicyclo[6.2.0] decane-6-carboxamide]
17 |  | 0.061 µM | O=C(Nc1ccccc1)N1CCCCN2[C@H](CO)[C@H](c3ccc(C#Cc4ccccc4)cc3)[C@@H]2C1 [Compound 78, (8R,9R,10S)-10-(hydroxymethyl)-N-phenyl-9-[4-(2-phenylethynyl)phenyl]-1,6-diazabicyclo[6.2.0] decane-6-carboxamide]
18 | 0.85 µM |  | COc1ccc(NC(=O)N2CCCN3[C@H](CO)[C@H](c4ccc(C#Cc5ccccc5)cc4)[C@@H]3C2)cc1 [Compound 79, (7R,8R,9S)-9-(hydroxymethyl)-N-(4-methoxyphenyl)-8-[4-(2-phenylethynyl)phenyl]-1,5-diazabicyclo[5.2.0] nonane-5-carboxamide]
19 | 0.023 µM |  | COc1ccc(NC(=O)N2CCCCN3[C@H](COCCC(=O)O)[C@H](c4ccc(C#Cc5ccccc5)cc4)[C@@H]3C2)cc1 [Compound 80, 3-(((8R,9R,10S)-6-((4-methoxyphenyl)carbamoyl)-9-(4-(phenylethynyl)phenyl)-1,6-diazabicyclo[6.2.0]decan-10-yl)methoxy)propanoic acid]
20 | 0.034 µM |  | COc1ccc(NC(=O)N2CCCCN3[C@H](CO)[C@H](c4ccc(C#Cc5ccccc5)cn4)[C@@H]3C2)cc1 [Compound 81, (8R,9R,10S)-10-(hydroxymethyl)-N-(4-methoxyphenyl)-9-(5-(phenylethynyl)pyridin-2-yl)-1,6-diazabicyclo[6.2.0] decane-6-carboxamide]

From patent publication US11325913B2, “Compounds and methods for the treatment of malaria” (THE BROAD INSTITUTE, INC., priority 2013, dated 2022)
